Among the data in US20110183978A1, “Phenylpyri(mi)dinylazoles” (Bayer CropScience AG, priority 2009, published 2011) are chromatographic logP, pest or weed control and inhibition values, retold here.

The subject of one data set is Alternaria solani. The data set can be described thus: Example M: in vivo test on Alternaria solani (leaf blotch disease/tomato/protective). The following applies: 168 h, tomato, protective, 500 ppm active substance, assessed 7 days after inoculation, read-out: % Wirkungsgrad (activity level). The protocol:
Solvent: 49 parts by weight N,N-dimethylformamide Emulsifier: 1 part by weight alkylaryl polyglycol ethers For the preparation of a suitable active substance preparation, 1 part by weight of active substance is mixed with the stated quantities of solvent and emulsifier and the concentrate is diluted to the desired concentration with water. For the testing for protective activity, young tomato plants are sprayed with the active substance preparation at the stated application dosage. […] 7 days after the inoculation, the assessment takes place.

The subject of another data set is Sphaerotheca fuliginea. The data set can be described thus: Example L: in vivo test on Sphaerotheca fuliginea (powdery mildew on cucumber/protective). The following applies: Podosphaera fuliginea, 168 h, cucumber, protective, assessment 7 days after inoculation, read-out: % Wirkungsgrad. The protocol:
Solvent: 49 parts by weight N,N-dimethylformamide Emulsifier: 1 part by weight alkylaryl polyglycol ethers For the preparation of a suitable active substance preparation, 1 part by weight of active substance is mixed with the stated quantities of solvent and emulsifier and the concentrate is diluted to the desired concentration with water. For the testing for protective activity, young cucumber plants are sprayed with the active substance preparation at the stated application dosage. One day after the treatment, the plants are inoculated with a spore suspension of Sphaerotheca fuliginea. Next, the plants are placed in a greenhouse at 70% relative atmospheric humidity and a temperature of 23° C. 7 days after the inoculation, the assessment takes place.

Another data set relates to Fusarium graminearum. The data set can be described thus: microbe, parasite or virus in culture. Format: cell-based.
The mark [1] stands for this setting: 72 h, read-out: % Inhibition des Pilzwachstums bei 50 μM.
[2] abbreviates: 168 h, read-out: % Inhibition der DON/AcDON produktion bei 50 μM.

The structures appear in SMILES notation. Like-named read-outs stand apart in the source and are kept apart here.

In general, chromatographic logP refers to a lipophilicity value derived from retention on a column. In the case of `CCOCCn1cc(-c2ccnc(NC(=O)CC3CC3)c2)c(-c2ccc(F)cc2)n1` [Compound 329], the chromatographic logP in “physchem” (LogPA) was 2.48. In addition, the results for the pest or weed control at 500 ppm in the data set with Alternaria solani and in the data set on Sphaerotheca fuliginea were 95% and 94%, respectively. Further, the inhibition at 50 µM in the data set on Fusarium graminearum (setting [1]) amounted to 104%; in the data set on Fusarium graminearum (setting [2]), 100%.

In “physchem” (LogPA), `CCOC(=O)Nc1cc(-c2cn(CC(C)C)nc2-c2ccc(F)cc2)ccn1` [Compound 267] came in with a chromatographic logP of 3.11. The figures for the pest or weed control at 500 ppm with Alternaria solani and in the data set with Sphaerotheca fuliginea were 95% and 98%, respectively. Besides, the values for the inhibition at 50 µM in the data set with Fusarium graminearum (setting [1]) and with Fusarium graminearum (setting [2]) were 59% and 97%, respectively.

`COCC(=O)Nc1cc(-c2cn(CC3CC3(Cl)Cl)nc2-c2ccc(F)cc2)ccn1` (stereo not drawn) [Compound 245] returned a chromatographic logP in “physchem” (LogPA) of 3.22. The pest or weed control at 500 ppm came out at 94% with Alternaria solani and 88% with Sphaerotheca fuliginea. The inhibition at 50 µM in the data set on Fusarium graminearum (setting [1]) worked out at 95%; in the data set with Fusarium graminearum (setting [2]), 99%.

As to `CCC(=O)Nc1cc(-c2cn(OC(C)C)nc2-c2ccc(F)cc2)ccn1` [Compound 226], the chromatographic logP in “physchem” (LogPA) was found to be 2.58. Besides, the pest or weed control at 500 ppm with Alternaria solani and in the data set with Sphaerotheca fuliginea was 95% throughout. Also, the results for the inhibition at 50 µM with Fusarium graminearum (setting [1]) and in the data set with Fusarium graminearum (setting [2]) were 85% and 100%, respectively.

`CCOCCn1cc(-c2ccnc(NC(=O)CC)c2)c(-c2ccc(F)cc2)n1` [Compound 326]: in the data set “physchem” (LogPA), the chromatographic logP was 2.01. Moreover, the pest or weed control at 500 ppm with Alternaria solani came out at 95%; in the data set with Sphaerotheca fuliginea, 94%. Moreover, the inhibition at 50 µM in the data set on Fusarium graminearum (setting [1]) worked out at 107%; with Fusarium graminearum (setting [2]) it was 100%.

In the data set “physchem” (LogPA), `CC(C)C(=O)Nc1cc(-c2cn(C(C)c3ccccc3F)nc2-c2ccc(F)cc2)ccn1` (stereo not drawn) [Compound 232] displayed a chromatographic logP of 3.41. Further, the pest or weed control at 500 ppm with Alternaria solani turned out to be 95%; with Sphaerotheca fuliginea, 93%. Further, the inhibition at 50 µM stood at 0% in the data set on Fusarium graminearum (setting [1]) and 80% in the data set on Fusarium graminearum (setting [2]).

`Cc1cn(-c2cc(-c3cn(C(C)C)nc3-c3ccc(F)cc3)ccn2)cn1` [Compound 283] returned a chromatographic logP in the data set “physchem” (LogPA) of 2.05. Moreover, the values for the pest or weed control at 500 ppm in the data set with Alternaria solani and in the data set on Sphaerotheca fuliginea were 95% and 78%, respectively.

As for `CCn1cc(-c2ccnc(NC(=O)CC3CCCC3)c2)c(-c2ccc(F)cc2)n1` [Compound 338], the chromatographic logP in the data set “physchem” (LogPA) was 3.87. For the same molecule, the pest or weed control at 500 ppm came out at 80% in the data set on Alternaria solani and 91% in the data set with Sphaerotheca fuliginea.

`COCC(C)Nc1nccc(-c2cn(CC(C)C)nc2-c2ccc(F)cc2)n1` (stereo not drawn) [Compound 285] showed a chromatographic logP in “physchem” (LogPA) of 2.39. Besides, the pest or weed control at 500 ppm with Alternaria solani was 95%; with Sphaerotheca fuliginea it was 89%.

As to `O=C(CC1CC1)Nc1cc(-c2cn(Cc3ccccc3F)nc2-c2ccc(F)cc2)ccn1` [Compound 253], the chromatographic logP in “physchem” (LogPA) is 3.17. In addition, the results for the pest or weed control at 500 ppm in the data set on Alternaria solani and in the data set with Sphaerotheca fuliginea were 94% and 92%, respectively.

As to `CC(C)n1cc(-c2ccnc3[nH]cnc23)c(-c2ccc(F)cc2)n1` [Compound 280], the chromatographic logP in “physchem” (LogPA) amounted to 1.82. Also, the figures for the pest or weed control at 500 ppm in the data set with Alternaria solani and in the data set on Sphaerotheca fuliginea were 95% and 93%, respectively.

Molecule `Cc1c(-c2ccncc2)c(-c2ccc(F)cc2)nn1CC(C)C` [Compound 368] registered a chromatographic logP in the data set “physchem” (LogPA) of 2.07. Moreover, the pest or weed control at 500 ppm with Alternaria solani worked out at 95%; in the data set on Sphaerotheca fuliginea, 94%.

Turning to `CCn1cc(-c2ccnc(NC(=O)C(C)C)c2)c(-c2ccc(F)cc2)n1` [Compound 290], the chromatographic logP in “physchem” (LogPA) came out at 2.14. Further, the pest or weed control at 500 ppm in the data set with Alternaria solani and in the data set with Sphaerotheca fuliginea was 100% in each case.

For the molecule `CC(C)Cn1cc(-c2ccnc(NC(=O)CC3CC3)c2)c(-c2ccc(F)cc2)n1` [Compound 158], the chromatographic logP in “physchem” (LogPA (logP of the stated pure compound or, in a mixture, of the main isomer, 1-substituted 3-aryl-1H-pyrazole)) worked out at 3.03. Besides, the pest or weed control at 500 ppm was 94% in the data set with Alternaria solani and 97% in the data set on Sphaerotheca fuliginea.

In the data set “physchem” (LogPA), `COCC(=O)Nc1cc(-c2cn(C(C)CC#N)nc2-c2ccc(F)cc2)ccn1` (stereo not drawn) [Compound 313] came in with a chromatographic logP of 2.17. Besides, the pest or weed control at 500 ppm with Alternaria solani was found to be 95%; in the data set with Sphaerotheca fuliginea, 98%.

In turn, `CC(C)C(=O)Cn1cc(-c2ccncc2)c(-c2ccc(F)cc2)n1` [Compound 178] came in with a chromatographic logP in the data set “physchem” (LogPA) of 1.37. For the same molecule, the pest or weed control at 500 ppm in the data set on Alternaria solani came out at 94%; in the data set with Sphaerotheca fuliginea it was 75%.

`CCn1cc(-c2ccnc(NC(=O)C(N)=O)c2)c(-c2ccc(F)cc2)n1` [Compound 351] yielded a chromatographic logP in “physchem” (LogPA) of 1.99. Also, the pest or weed control at 500 ppm in the data set on Alternaria solani amounted to 95%; in the data set on Sphaerotheca fuliginea, 80%.

In “physchem” (LogPA), `CCC(=O)Nc1cc(-c2c(-c3ccc(F)cc3)nn(C)c2OC(F)F)ccn1` [Compound 316] registered a chromatographic logP of 2.33. For the same molecule, the pest or weed control at 500 ppm with Alternaria solani came out at 100%; in the data set on Sphaerotheca fuliginea, 75%.

Take `CC(C)Cn1cc(-c2ccncc2-c2ccc(F)cc2)c(-c2ccc(F)cc2)n1` [Compound 228]: the chromatographic logP in “physchem” (LogPA) worked out at 2.96. For the same molecule, the pest or weed control at 500 ppm was determined as 70% in the data set with Alternaria solani and 75% in the data set with Sphaerotheca fuliginea.

In the data set “physchem” (LogPA), `CC(C)n1cc(-c2ccnc(N)n2)c(-c2ccc(F)cc2)n1` [Compound 366] gave a chromatographic logP of 1.54. For the same molecule, the pest or weed control at 500 ppm in the data set on Alternaria solani came out at 80%; with Sphaerotheca fuliginea, 94%.

`CCC(=O)Nc1cc(-c2cn(C(C)C3CC3)nc2-c2ccc(F)cc2)ccn1` (stereo not drawn) [Compound 301] showed a chromatographic logP in the data set “physchem” (LogPA) of 2.54. Further, the pest or weed control at 500 ppm in the data set on Alternaria solani and with Sphaerotheca fuliginea was 95% throughout.

Molecule `CCCn1cc(-c2ccnc(NC(=O)C(C)C)c2)c(-c2ccc(F)cc2)n1` [Compound 294] registered a chromatographic logP in the data set “physchem” (LogPA) of 2.49. For the same molecule, the pest or weed control at 500 ppm in the data set with Alternaria solani is 100%; in the data set on Sphaerotheca fuliginea, 98%.

In the data set “physchem” (LogPA), `Cn1cc(-c2ccnc(NC(=O)CC3CC3)c2)c(-c2ccc(F)cc2)n1` [Compound 299] yielded a chromatographic logP of 1.98. The pest or weed control at 500 ppm in the data set on Alternaria solani turned out to be 100%; in the data set on Sphaerotheca fuliginea, 84%.

`CC(C)Cn1cc(-c2ccncc2-c2cccc(F)c2)c(-c2ccc(F)cc2)n1` [Compound 229] came in with a chromatographic logP in the data set “physchem” (LogPA) of 3.13. Further, the pest or weed control at 500 ppm in the data set on Alternaria solani was 95%; with Sphaerotheca fuliginea, 94%. Also, the figures for the inhibition at 50 µM in the data set on Fusarium graminearum (setting [1]) and in the data set on Fusarium graminearum (setting [2]) were 0% and 97%, respectively.

On to `CCC(=O)Nc1cc(-c2cn(C(C)CC#N)nc2-c2ccc(F)cc2)ccn1` (stereo not drawn) [Compound 312], for which the chromatographic logP in “physchem” (LogPA) is 1.87. Further, the pest or weed control at 500 ppm in the data set on Alternaria solani and with Sphaerotheca fuliginea was 100% in each case.

With `CCOCCn1cc(-c2ccnc(NC(=O)C(C)C)c2)c(-c2ccc(F)cc2)n1` [Compound 328], the chromatographic logP in “physchem” (LogPA) was determined as 2.32. Moreover, the results for the pest or weed control at 500 ppm in the data set with Alternaria solani and in the data set with Sphaerotheca fuliginea were 95% and 100%, respectively. In addition, the inhibition at 50 µM was 101% in the data set with Fusarium graminearum (setting [1]) and 100% in the data set on Fusarium graminearum (setting [2]).

Consider `CCC(=O)Nc1cc(-c2cn(CCC#N)nc2-c2ccc(F)cc2)ccn1` [Compound 303], for which the chromatographic logP in the data set “physchem” (LogPA) was found to be 1.63. The pest or weed control at 500 ppm amounted to 100% in the data set with Alternaria solani and 95% with Sphaerotheca fuliginea.

In turn, `CC(C)C(=O)Nc1cc(-c2cn(C(C)C3CC3)nc2-c2ccc(F)cc2)ccn1` (stereo not drawn) [Compound 307] registered a chromatographic logP in the data set “physchem” (LogPA) of 2.9. In addition, the pest or weed control at 500 ppm in the data set on Alternaria solani and in the data set on Sphaerotheca fuliginea was 100% each time.

On to `CC(C)C(=O)Nc1cc(-c2cn(CC3OCCO3)nc2-c2ccc(F)cc2)ccn1` [Compound 276], for which the chromatographic logP in “physchem” (LogPA) is 1.99. For the same molecule, the pest or weed control at 500 ppm was 95% in the data set on Alternaria solani and 99% in the data set with Sphaerotheca fuliginea.

As to `CCn1cc(-c2ccnc(NC(=O)[C@@H]3C[C@H]3c3ccccc3)c2)c(-c2ccc(F)cc2)n1` [Compound 337], in the data set “physchem” (LogPA), the chromatographic logP worked out at 3.06. For the same molecule, the pest or weed control at 500 ppm in the data set with Alternaria solani worked out at 95%; in the data set with Sphaerotheca fuliginea it was 88%.

Take `CC(C)n1cc(-c2ccnc(NC(=O)N(C)C)c2)c(-c2ccc(F)cc2)n1` [Compound 233]: the chromatographic logP in “physchem” (LogPA) came out at 1.6. Also, the pest or weed control at 500 ppm in the data set with Alternaria solani was determined as 90%; in the data set with Sphaerotheca fuliginea, 95%. The inhibition at 50 µM in the data set on Fusarium graminearum (setting [1]) and in the data set on Fusarium graminearum (setting [2]) was 100% each time.

As to `CC(C)Cn1cc(-c2ccnc(NC(C)(C)C)n2)c(-c2ccc(F)cc2)n1` [Compound 284], the chromatographic logP in the data set “physchem” (LogPA) turned out to be 2.94. For the same molecule, the pest or weed control at 500 ppm is 100% with Alternaria solani and 91% with Sphaerotheca fuliginea.

In turn, `CC(=O)Nc1cc(-c2cn(C)nc2-c2ccc(F)cc2)ccn1` [Compound 350] had a chromatographic logP in the data set “physchem” (LogPA) of 1.32. Also, the pest or weed control at 500 ppm is 95% in the data set on Alternaria solani and 94% in the data set with Sphaerotheca fuliginea.

As for `CC(C)C(=O)Nc1cc(-c2cn(C(C)CC#N)nc2-c2ccc(F)cc2)ccn1` (stereo not drawn) [Compound 314], the chromatographic logP in the data set “physchem” (LogPA) amounted to 1.29. Also, the pest or weed control at 500 ppm in the data set with Alternaria solani and in the data set on Sphaerotheca fuliginea was 100% in each case.
